Data from ChEMBL document CHEMBL1130638, “Hepatoprotective, superoxide scavenging, and antioxidative activities of aromatic constituents from the bark of Betula platyphylla var. japonica” (1998).

Key:
Format in all cases: functional
Rattus norvegicus [1] = organism: Rattus norvegicus; experiment: Compound was tested for hepatoprotective activity against D-GalN-induced cytotoxicity in primary cultured rat hepatocytes at 10 uM dose; settings: Hepatocyte
Rattus norvegicus [2] = organism: Rattus norvegicus; experiment: Compound was tested for hepatoprotective activity against D-GalN-induced cytotoxicity in primary cultured rat hepatocytes at 30 uM dose; settings: Hepatocyte
Rattus norvegicus [3] = organism: Rattus norvegicus; experiment: Compound was tested for hepatoprotective activity against D-GalN-induced cytotoxicity in primary cultured rat hepatocytes at 100 uM dose; settings: Hepatocyte
Rattus norvegicus [4] = organism: Rattus norvegicus; experiment: Compound was tested for hepatoprotective activity against D-GalN-induced cytotoxicity in primary cultured rat hepatocytes at 3 uM dose; settings: Hepatocyte
Rattus norvegicus [5] = organism: Rattus norvegicus; experiment: Compound was tested for antioxidative activity using TBA method at a concentration of 200 ug/mL.
Rattus norvegicus [6] = organism: Rattus norvegicus; experiment: Compound was tested for O2- scavenging activity using NBT method at a concentration of 20 ug/mL.
Rattus norvegicus [7] = organism: Rattus norvegicus; experiment: Compound was tested for O2- scavenging activity using NBT method at a concentration of 20 ug/ml.
Rattus norvegicus [8] = organism: Rattus norvegicus; experiment: Compound was tested for antioxidative activity using TBA method at a concentration of 200 ug/ml.

Structure (SMILES)	inhibition at 10 µM (Rattus norvegicus [1]) [%]	inhibition at 30 µM (Rattus norvegicus [2]) [%]	inhibition at 100 µM (Rattus norvegicus [3]) [%]	inhibition at 3 µM (Rattus norvegicus [4]) [%]	Inhibition (Rattus norvegicus [5]) [%]	inhibition (Rattus norvegicus [6]) [%]	inhibition (Rattus norvegicus [7]) [%]	Inhibition (Rattus norvegicus [8]) [%]
C[C@H](CCc1ccc(O)cc1)O[C@@H]1O[C@H](CO)[C@@H](O)[C@H](O)[C@H]1O	10.1	4.9	-0.8	4.7	–	–	–	–
Oc1ccc([C@H]2Oc3cc(OC4OCC(O)C(O)C4O)cc(O)c3C[C@@H]2O)cc1O (stereo partly specified)	8.8	8.5	9.4	4.8	50.1	92.9	–	–
OC[C@H]1O[C@@H](O[C@@H](CCc2ccc(O)cc2)C[C@H](O)CCc2ccc(O)cc2)[C@H](O)[C@H](O)[C@H]1O	14.1	27.3	74.7	16.2	–	–	1	56.3
COc1cc([C@H]2c3c(cc(OC)c(O)c3OC)C[C@@H](CO)[C@@H]2CO[C@H]2O[C@@H](CO)[C@@H](O)[C@H](O)[C@@H]2O)cc(OC)c1O	24.8	24.1	26.9	22.3	96.8	67.3	–	–
O=C1c2c(O)cc(O)cc2O[C@H](c2ccc(O)c(O)c2)[C@H]1O [(+)-TAXIFOLIN]	–	–	–	–	37	93.8	–	–
C[C@@H](CCc1ccc(O)cc1)O[C@@H]1O[C@H](CO[C@@H]2O[C@@H](CO)[C@H](O)[C@H]2O)[C@@H](O)[C@H](O)[C@H]1O	3.6	9.6	5.4	10.1	–	4	–	–
Cc1c(C)c2c(c(C)c1O)CC[C@@](C)(CCC[C@H](C)CCC[C@H](C)CCCC(C)C)O2 [ALPHA-TOCOPHEROL]	–	–	–	–	56.7	–	–	–
OC[C@H]1O[C@@H](O[C@@H](CCc2ccc(O)cc2)C[C@@H](O)CCc2ccc(O)cc2)[C@H](O)[C@H](O)[C@H]1O	7.4	21.7	37.4	9.9	–	–	1.8	61.8
Cc1cc(C(C)(C)C)c(O)c(C(C)(C)C)c1 [BUTYLATED HYDROXYTOLUENE]	–	–	–	–	97	–	–	–
COc1cc(C(C)(C)C)c(O)c(C(C)(C)C)c1	–	–	–	–	88	–	–	–
OC[C@@]1(O)CO[C@@H](OC[C@H]2O[C@@H](O[C@H](CCCCc3ccc(O)cc3)CCc3ccc(O)cc3)[C@H](O)[C@H](O)[C@H]2O)[C@@H]1O	38.4	43.9	55.3	28.3	–	–	–	–
COc1cc([C@@H]2c3c(cc(OC)c(O)c3OC)C[C@H](CO)[C@H]2CO[C@H]2O[C@@H](CO)[C@@H](O)[C@H](O)[C@@H]2O)cc(OC)c1O	7.6	10.5	28.9	8.3	87.2	58.8	–	–
C[C@H](CCc1ccc(O)cc1)O[C@@H]1O[C@H](CO[C@@H]2OC[C@](O)(CO)[C@H]2O)[C@H](O)[C@@H](O)[C@H]1O	-1.6	2.1	-2.3	1.4	93.5	1.8	–	–
C[C@@H](CCc1ccc(O)cc1)O[C@@H]1O[C@H](CO[C@@H]2OC[C@](O)(CO)[C@H]2O)[C@H](O)[C@@H](O)[C@H]1O	1.7	0.7	-4.5	3.6	21.8	10.8	–	–
C[C@H](CCc1ccc(O)cc1)O[C@@H]1O[C@H](CO[C@@H]2O[C@H](CO)[C@@H](O)[C@@H]2O)[C@H](O)[C@@H](O)[C@H]1O	6.2	7.5	6.8	3.4	98.2	5.1	–	–
